In brackets after ≈: the same amount, converted by molar mass. Read-outs that look alike come from different tables or passages of the source.
Assays:
[1] = test system: Mtb H37Rv strain; experiment: MIC90 determination in GASTE-Fe media (broth microdilution); type: cell-based, Mycobacterium tuberculosis; design: fold loss in activity/potency (MIC90): reference not given here
[2] = physchem; type: physicochemical; conditions: for solubility: kinetic solubility, pH 7.4, HPLC method
Description: The kinetic solubility assay was performed using a miniaturised shake flask method. 10 mM stock solutions of each of the test compounds were used to prepare calibration standards (10-220μM) in DMSO. The same 10mM stock solutions were accurately dispensed in duplicate into 96-well plates and the DMSO dried down (MiVac GeneVac, 90 min, 37 °C). Thereafter, the samples were reconstituted (200 µM) in phosphate buffered saline (pH 7.4) and shaken (20 hours, 25 °C). The solutions were filtered and analysed by means of HPLC -DAD (Agilent 1200 Rapid Resolution HPLC with a diode array detector). […]

[3] = type: in vitro ADME; conditions: for Metabolic Stability H (% Rem.): human liver microsomes; for Metabolic Stability M (% Rem.): mouse liver microsomes; for Metabolic Stability R (% Rem.): rat liver microsomes
Description: 3.2. Microsomal stability
The metabolic stability assay was performed in duplicate in a 96-well micro titre plate. The test compounds (0.1 μM) were incubated individually in mouse, rat and pooled human liver microsomes ((final protein concentration of 0.4 mg/mL; XenoTech, Lenexa, KS ), suspended in 0.1M phosphate buffer (pH 7.4) at 37 °C for predetermined time points, in the presence and absence of the cofactor NADPH (1 mM). Reactions were quenched by adding ice cold acetonitrile containing internal standard (carbamazepine, 0.0236 µg/mL). T he samples were centrifuged and test compound in the supernatant were analysed by means of LC -MS/MS (Agilent Rapid Resolution HPLC, AB SCIEX 4500 MS ). The relative loss of parent compound over time was monitored and plots (concentration vs. time) were prepared per compound to determine the first order rate constant for compound depletion. This was in turn used to calculate half-life, in vitro intrinsic clearance and in vivo hepatic extraction ratio. Metabolite searches were not conducted during the metabolic stability assay. 5

[4] = in vitro; conditions: Chinese hamster
[5] = Mtb H37Rv, replicating conditions, GASTE-Fe media, read 14 days after incubation, read-out: MIC90 GASTE-Fe
[6] = Mycobacterium tuberculosis, H37RV, 336 h, Mtb H37Rv, replicating conditions, GASTE-Fe media, read 14 days after incubation, read-out: MIC90 GASTE-Fe
[7] = Mycobacterium tuberculosis, H37RV, 336 h, read-out: MIC90 GAST-Fe

NC[C@H]1O[C@H](O[C@H]2[C@H](O)[C@@H](O[C@H]3O[C@H](CO)[C@@H](O)[C@H](N)[C@H]3O)[C@H](N)C[C@@H]2N)[C@H](O)[C@@H](O)[C@@H]1O [Kanamycin, reference compound]
MIC90 [1, 5]: 1.562 µM (≈ 0.757 µg/mL)

CNC(=O)c1cncc(-c2ccc3nc(N)n(-c4ccc(C(F)(F)F)cc4)c(=O)c3c2)c1 [compound 12]
fold loss in activity/potency (MIC90) [1]: 10 fold
MIC90 [1, 6]: 9.22 µM (≈ 4.05 µg/mL)
solubility ([2]; 25 °C, pH 7.4, aqueous buffer): 40 µM (≈ 17.6 µg/mL)
solubility [2]: 39 µM (≈ 17.1 µg/mL)
Metabolic Stability H (% Rem.) [3]: 85 % Rem.
Metabolic Stability M (% Rem.) [3]: 75 % Rem.
Metabolic Stability R (% Rem.) [3]: 85 % Rem.

Nc1nc2ccc(-c3cncc(C(=O)N4CCOCC4)c3)cc2c(=O)n1-c1ccc(C(F)(F)F)cc1 [compound 17, 2-Amino-6-(5-(morpholine-4-carbonyl)pyridin-3-yl)-3-(4-(trifluoromethyl)phenyl)quinazolin-4(3H)-one]
fold loss in activity/potency (MIC90) [1]: 15 fold
MIC90 [1, 6]: 83 µM (≈ 41.1 µg/mL)

COc1cncc(-c2ccc3nc(N)n(-c4ccc(C(F)(F)F)cc4)c(=O)c3c2)c1 [compound 24]
solubility ([2]; 25 °C, pH 7.4, aqueous buffer): 40 µM (≈ 16.5 µg/mL)
Metabolic Stability H (% Rem.) [3]: 72/-/- % Rem.
IC50 [4]: > 100 µM

COc1cccc(-c2ccc3nc(N)n(-c4ccc(C(F)(F)F)cc4)c(=O)c3c2)c1 [compound 25]
MIC90 [1, 6]: 10 µM (≈ 4.11 µg/mL)

CC(C)(C)c1cccc(-c2ccc3nc(N)n(-c4ccc(C(F)(F)F)cc4)c(=O)c3c2)c1 [compound 26]
MIC90 [1, 6]: 10 µM (≈ 4.37 µg/mL)
IC50 [4]: > 100 µM

Nc1nc2ccc(-c3cccc(Cl)c3)cc2c(=O)n1-c1ccc(C(F)(F)F)cc1 [compound 29]
MIC90 [1, 6]: 0.675 µM (≈ 0.281 µg/mL)
solubility ([2]; 25 °C, pH 7.4, aqueous buffer): < 5 µM
Metabolic Stability H (% Rem.) [3]: 73/-/- % Rem.

NC(=O)c1cccc(-c2ccc3c(=O)n(-c4ccc(C(F)(F)F)cc4)c(N)nc3c2)c1 [compound 33]
MIC90 [1, 6]: 1.22 µM (≈ 0.518 µg/mL)
solubility ([2]; 25 °C, pH 7.4, aqueous buffer): 58 µM (≈ 24.6 µg/mL)
fold improvement in solubility ([2]; pH 7.4, relative to comparator analogue): 10 fold
Metabolic Stability H (% Rem.) [3]: 96 % Rem.
Metabolic Stability M (% Rem.) [3]: 92 % Rem.
Metabolic Stability R (% Rem.) [3]: 93 % Rem.

C[S+]([O-])c1cccc(-c2ccc3nc(N)n(-c4cccc(C(F)(F)F)c4)c(=O)c3c2)c1 (stereo not shown) [compound 34]
MIC90 [1, 7]: 14.8 µM (≈ 6.56 µg/mL)
solubility ([2]; 25 °C, pH 7.4, aqueous buffer): > 100 µM
solubility [2]: 164 µM (≈ 72.7 µg/mL)
Metabolic Stability H (% Rem.) [3]: 50 % Rem.
Metabolic Stability M (% Rem.) [3]: 51 % Rem.
Metabolic Stability R (% Rem.) [3]: 58 % Rem.

C[S+]([O-])c1cccc(-c2ccc3nc(N)n(-c4ccccc4)c(=O)c3c2)c1 (stereo not shown) [compound 35]
MIC90 [1, 7]: 33 µM (≈ 12.4 µg/mL)
MIC90 ([1]; read-out: MIC90 GAST-Fe): 33.4 µM (≈ 12.5 µg/mL)

Cc1ccc(-n2c(N)nc3ccc(-c4cccc([S+](C)[O-])c4)cc3c2=O)cc1 (stereo not shown) [compound 36]
MIC90 [1, 7]: 3.09 µM (≈ 1.2 µg/mL)
solubility ([2]; 25 °C, pH 7.4, aqueous buffer): > 100 µM
solubility [2]: 172 µM (≈ 67 µg/mL)
Metabolic Stability H (% Rem.) [3]: 99 % Rem.
Metabolic Stability M (% Rem.) [3]: 71 % Rem.
Metabolic Stability R (% Rem.) [3]: 68 % Rem.

CS(=O)(=O)c1cccc(-c2ccc3ncn(-c4ccc(C(F)(F)F)cc4)c(=O)c3c2)c1 [compound 38, 6-(3-(Methylsulfonyl)phenyl)-3-(4-(trifluoromethyl)phenyl)quinazolin-4(3H)-one]
fold loss in activity/potency (MIC90) [1]: 10 fold
MIC90 [1, 6]: 2.96 µM (≈ 1.32 µg/mL)
solubility ([2]; 25 °C, pH 7.4, aqueous buffer): < 5 µM

CN(C)c1nc2ccc(-c3cccc([S+](C)[O-])c3)cc2c(=O)n1-c1ccc(C(F)(F)F)cc1 (stereo not shown) [compound 42, 2-(Dimethylamino)-6-(3-(methylsulfinyl)phenyl)-3-(4-(trifluoromethyl)phenyl)quinazolin-4(3H)-one]
MIC90 [1, 6]: 2.89 µM (≈ 1.36 µg/mL)
solubility ([2]; 25 °C, pH 7.4, aqueous buffer): < 5 µM
Metabolic Stability H (% Rem.) [3]: 82 % Rem.
Metabolic Stability M (% Rem.) [3]: 80 % Rem.
Metabolic Stability R (% Rem.) [3]: 86 % Rem.

CN(C)c1nc2ccc(-c3cccc(S(C)(=O)=O)c3)cc2c(=O)n1-c1ccc(C(F)(F)F)cc1 [compound 43, 2-(Dimethylamino)-6-(3-(methylsulfonyl)phenyl)-3-(4-(trifluoromethyl)phenyl)quinazolin-4(3H)-one]
MIC90 [1, 5]: >125 µM
MIC90 [1, 6]: > 125 µM
solubility ([2]; 25 °C, pH 7.4, aqueous buffer): 21.6 µM (≈ 10.5 µg/mL)
Metabolic Stability H (% Rem.) [3]: 85 % Rem.
Metabolic Stability M (% Rem.) [3]: 90 % Rem.
Metabolic Stability R (% Rem.) [3]: 94 % Rem.

C[S+]([O-])c1cccc(-c2ccc3nc(N)n(-c4ccc(C(F)(F)F)nc4)c(=O)c3c2)c1 (stereo not shown) [compound 47, 2-Amino-6-(3-(methylsulfinyl)phenyl)-3-(6-(trifluoromethyl)pyridin-3-yl)quinazolin-4(3H)-one]
MIC90 [1, 7]: 0.922 µM (≈ 0.41 µg/mL)
solubility ([2]; 25 °C, pH 7.4, aqueous buffer): < 5 µM
Metabolic Stability H (% Rem.) [3]: 93 % Rem.
Metabolic Stability M (% Rem.) [3]: 93 % Rem.
Metabolic Stability R (% Rem.) [3]: 99 % Rem.

C[S+]([O-])c1cccc(-c2ccc3nc(N)n(-c4ccccc4C(F)(F)F)c(=O)c3c2)c1 (stereo not shown) [compound 48]
MIC90 [1, 7]: > 125 µM

C[S+]([O-])c1cccc(-c2ccc3nc(N)n(-c4ccc(F)cc4)c(=O)c3c2)c1 (stereo not shown) [compound 49]
MIC90 [1, 7]: 4.84 µM (≈ 1.9 µg/mL)
solubility ([2]; 25 °C, pH 7.4, aqueous buffer): 37.8 µM (≈ 14.9 µg/mL)
solubility [2]: 38 µM (≈ 15 µg/mL)
Metabolic Stability H (% Rem.) [3]: 82 % Rem.
Metabolic Stability M (% Rem.) [3]: 96 % Rem.
Metabolic Stability R (% Rem.) [3]: 93 % Rem.

C[S+]([O-])c1cccc(-c2ccc3nc(N)n(-c4ccccc4F)c(=O)c3c2)c1 (stereo not shown) [compound 50]
MIC90 [1, 7]: 67 µM (≈ 26.4 µg/mL)

C[S+]([O-])c1cccc(-c2ccc3nc(N)n(-c4ccc(S(C)(=O)=O)cc4)c(=O)c3c2)c1 (stereo not shown) [compound 51]
MIC90 [1, 7]: > 125 µM

C[S+]([O-])c1cccc(-c2ccc3nc(N)n(-c4ccc(O)cc4)c(=O)c3c2)c1 (stereo not shown) [compound 52]
MIC90 [1, 7]: > 125 µM

COc1ccc(-n2c(N)nc3ccc(-c4cccc([S+](C)[O-])c4)cc3c2=O)cc1 (stereo not shown) [compound 53]
MIC90 [1, 7]: 6.75 µM (≈ 2.74 µg/mL)
solubility ([2]; 25 °C, pH 7.4, aqueous buffer): > 100 µM
solubility [2]: 128 µM (≈ 51.9 µg/mL)
Metabolic Stability H (% Rem.) [3]: 100 % Rem.
Metabolic Stability M (% Rem.) [3]: 99 % Rem.
Metabolic Stability R (% Rem.) [3]: 103 % Rem.

C[S+]([O-])c1cccc(-c2ccc3nc(N)n(-c4ccc(C#N)cc4)c(=O)c3c2)c1 (stereo not shown) [compound 54]
MIC90 [1, 7]: 9.28 µM (≈ 3.72 µg/mL)
solubility ([2]; 25 °C, pH 7.4, aqueous buffer): 16.3 µM (≈ 6.53 µg/mL)
solubility [2]: 16 µM (≈ 6.41 µg/mL)
Metabolic Stability H (% Rem.) [3]: 92 % Rem.
Metabolic Stability M (% Rem.) [3]: 91 % Rem.
Metabolic Stability R (% Rem.) [3]: 98 % Rem.

C[S+]([O-])c1cccc(-c2ccc3nc(N)n(-c4cccc(C#N)c4)c(=O)c3c2)c1 (stereo not shown) [compound 55]
MIC90 [1, 7]: 43 µM (≈ 17.2 µg/mL)

C[S+]([O-])c1cccc(-c2ccc3nc(N)n(C4CCC(F)(F)CC4)c(=O)c3c2)c1 (stereo not shown) [compound 56]
MIC90 [1, 7]: 45.7 µM (≈ 19.1 µg/mL)
solubility ([2]; 25 °C, pH 7.4, aqueous buffer): > 100 µM
solubility [2]: 125 µM (≈ 52.2 µg/mL)
Metabolic Stability H (% Rem.) [3]: 95 % Rem.
Metabolic Stability M (% Rem.) [3]: 83 % Rem.
Metabolic Stability R (% Rem.) [3]: 81 % Rem.

C[S+]([O-])c1cccc(-c2ccc3nc(N)n(C4CCC(C(F)(F)F)CC4)c(=O)c3c2)c1 (stereo not shown) [compound 57]
MIC90 [1, 7]: 2.75 µM (≈ 1.24 µg/mL)

C[S+]([O-])c1cccc(-c2ccc3nc(N)n(Cc4ccc(C(F)(F)F)cc4)c(=O)c3c2)c1 (stereo not shown) [compound 58]
MIC90 [1, 7]: > 31 µM
solubility ([2]; 25 °C, pH 7.4, aqueous buffer): > 100 µM
solubility [2]: 104 µM (≈ 47.6 µg/mL)
Metabolic Stability H (% Rem.) [3]: 52 % Rem.
Metabolic Stability M (% Rem.) [3]: 69 % Rem.
Metabolic Stability R (% Rem.) [3]: 61 % Rem.

From publication PMC7359024, “Synthesis, Structure–Activity Relationship, and Mechanistic Studies of Aminoquinazolinones Displaying Antimycobacterial Activity” (ACS Infectious Diseases, 2020)
